{
  "source": "patent US20200254241A1",
  "about": "“ELECTRICAL METHOD OF DELIVERING HYALURONIC ACID THROUGH THE SKIN” (priority 2017, published 2020)",
  "key": {"[1]": {"assay": "Skin images (confocal microscopy) for skin damage after the electrical treatment", "parameters": "species or system porcine", "settings": "for skin damage in skin images: electroporation condition 9 plus iontophoresis", "description": "The combination of such parameters with iontophoresis at 0.2 mA/cm^2 for 20 min has also been corroborated (x 12 vs. passive diffusion).\n9. Take photos to make a visual record of skin condition.\nThe skin images obtained provide more information about the possible skin damage produced by the electroporation treatment."}, "[2]": {"assay": "In vitro skin deposition of FL-HA (120 kDa) in Franz diffusion cells, fluorimetry", "type": "in vitro ADME, porcine", "text": "The effect of electroporation parameters on skin integrity and transport of hyaluronic acid (at 1% by weight in water) 120 kDa (HA) labeled with fluorescein into the permeabilzed skin was investigated in vitro using electroporation vs. its passive diffusion.\nii) porating mode (100-250 V, shorter pulse lengths and low number of pulses). Franz-diffusion cells were used to evaluate the in vitro delivery.\nPorcine ear skin was used for the in vitro studies. It is accepted as a good model for the human skin barrier. Hairs were excised from the skin surface using clippers. The skin was “sliced” so as to obtain samples with an average thickness of 1.5 mm for all samples. Skin was frozen (−20° C.) or stored at 4° C. until use.\nThe FL-HA was quantified using by fluorimetry. The measurements were performed using a microplate reader. The excitation and emission wavelengths were 494 and 514 nm. The gain was adjusted to 80 in order to obtain better sensitivity of the samples. All samples were put in polystyrene 96-well plates and protected from the light until analysis. Furthermore, a calibration curve was included in every plate.\nThe aim of the experiments was to quantify penetration of FL-HA (120 kDa) into intact, electroporated porcine ear skin with and without iontophoresis) as a function of duration using the optimal treatment conditions identified in the previous part of the study. Electroporation treatment was performed either as (i) pre-treatment, where electroporation was performed before formulation application, or as (ii) co-treatment, where the elcetroporation treatment was performed simultaneou.sly in the presence of the formulation. All conditions were tested for 10 and 20 min.\n3. Condition 9 (Voltage 250 V, Pulse length 15 ms, Pulse interval 50 ms and 9 Pulses), pre-treatment with electroporation\n4. Condition 9 (Voltage 250 V, Pulse length 15 ms, Pulse interval 50 ms and 9 Pulses), simultaneous treatment with electroporation and formulation\n7. Control: Application of an aqueous solution of FL-HA (120 kDa) formula on (1% w/w) to “untreated” skin. […]"}},
  "data": [
    {"substance": "hyaluronic acid [HA 120 kDa]", "values": [
      {"measurement": "visual damage to the membrane (skin)", "setting": "[1]; electroporation alone, 250 V, pulse length 15 ms, pulse interval 50 ms, <10 pulses", "result": "no visual damage"},
      {"measurement": "skin damage in skin images", "setting": "[1]", "result": "lack of significant damage to the skin"},
      {"measurement": "skin damage in skin images", "setting": "[1]; listed as 120 kDa FL-HA formulation", "result": "no damage was observed"},
      {"measurement": "skin deposition, electroporation plus iontophoresis (CT+I) compared with electroporation alone (CT)", "setting": "[2]; condition 9, iontophoresis 0.2 mA/cm^2 for 20 min, p<0.05, ANOVA, Student Newman Keuls test", "result": "statistically superior"},
      {"measurement": "skin deposition, electroporation plus iontophoresis (CT+I) compared with electroporation alone (CT)", "setting": "[2]; condition 9, iontophoresis 0.2 mA/cm^2 up to 10 min", "result": "not increasing the deposition"},
      {"measurement": "increase in skin deposition vs. passive diffusion", "setting": "[2]; electroporation combined with iontophoresis at 0.2 mA/cm^2 for 20 min", "result": 12, "unit": "x"}
    ]}
  ]
}
